Measurements published in patent publication US20060142297A1, “Combination product of inhibitor of the src family of non-recetpor tyrosine kinases and gemcitabine” (priority 2002, published 2006).
“And” between values parts separate entries of the source, which are not always exact repeats. Equal entries are not always repeated.

Key:
[1] = Body weight of treated nude mice in the L3.6pl pancreatic tumour model; type: in vivo, male athymic nude mice
Procedure: (§1) L3.6pl pancreatic cancer cells were obtained after successive cycles of cell selection from nude mouse tumour tissue that developed after injection of COLO 357 human pancreatic cancer cells. L3.6pl cancer cells (1×10^6 cells) were injected into the pancreas of each animal in several groups of male athymic nude mice (n=8 to 10 per group). […] On the days where both agents were given, the gemcitabine was dosed at least 1 hour before test compound Src-1. A control group of 10 mice received intraperitoneal injections of an equivalent volume of saline according to the same treatment schedule as the combination group. The animals were sacrificed 32 days after tumour cell injection. The pancreatic tumour weight was measured. The incidence of liver metastases was evaluated. All macroscopically enlarged liver nodules were evaluated by histopathology to confirm tumour metastasis.

[2] = system: L3.6pl pancreatic cancer cells; assay: Orthotopic L3.6pl pancreatic tumour model in nude mice: pancreatic tumour weight and liver metastases; type: in vivo, human; details: for Liver Metastases: animals with metastases/animals
Text: as §1, with “The test method has been described by C J Bruns et al., Cancer Research, 2000, 60, 2926-2935 and involves the injection of pancreatic tumour cells derived from the COLO 357 human pancreatic cancer cell line into pancreas tissue in a group of nude mice and an evaluation of tumour growth and metastasis into liver node tissue. L3.6pl pancreatic” for “L3.6pl pancreatic”

[3] = Src-1 25 mg/kg orally by gavage daily, days 1-5 and 8-12, 32 days after tumour cell injection
[4] = Src-1 50 mg/kg orally by gavage daily, days 1-5 and 8-12, 32 days after tumour cell injection

SMILES: COc1ccc(Cl)c(Nc2ncnc3cc(OCC4CCN(C)CC4)c(OC)cc23)c1 [Src-1, 4-(2-chloro-5-methoxyanilino)-6-methoxy-7-(N-methylpiperidin-4-ylmethoxy)quinazoline]
- Average Body Weight +/− std dev ([1]; Src-1 25 mg/kg orally by gavage daily, days 1-5 and 8-12): 22.6 ± 1.4 g
- Average Body Weight +/− std dev ([1]; Src-1 50 mg/kg orally by gavage daily, days 1-5 and 8-12): 22.3 ± 6.8 g
- Average Tumour Weight +/− std dev [2, 3]: 816 ± 118 mg
- Liver Metastases [2, 3]: 0/9
- Average Tumour Weight +/− std dev [2, 4]: 827 ± 176 mg
- Liver Metastases [2, 4]: 0/9

SMILES: Cl.Nc1ccn([C@@H]2O[C@H](CO)[C@@H](O)C2(F)F)c(=O)n1 [gemcitabine, 2′-deoxy-2′,2′-difluorocytidine monohydrochloride]
- Average Body Weight +/− std dev ([1]; gemcitabine 100 mg/kg intraperitoneal twice weekly): 22.7 ± 1.5 g
- Liver Metastases ([2]; gemcitabine 100 mg/kg intraperitoneal twice weekly (days 2, 5, 9, 12), sacrificed 32 days after tumour cell injection, monohydrochloride): ⅕ and 1/5
- Average Tumour Weight +/− std dev ([2]; gemcitabine 100 mg/kg intraperitoneal twice weekly, 32 days after tumour cell injection): 393 ± 68 mg
